Measured values reported in BindingDB's records for doi:10.1021/jm000275p (Merck Research Laboratories, 2001).

Tests used:
[1] = target: Gonadotropin-releasing hormone receptor (Canis familiaris); experiment: Functional antagonism at gonadotropin-releasing hormone receptor in dog (PI turnover)
[2] = target: Gonadotropin-releasing hormone receptor (Canis familiaris); experiment: In vitro inhibition of binding to gonadotropin-releasing hormone receptor in dog
[3] = target: Gonadotropin-releasing hormone receptor (Macaca mulatta); experiment: Functional antagonism at the rhesus monkey gonadotropin-releasing hormone receptor
[4] = target: Gonadotropin-releasing hormone receptor (Macaca mulatta); experiment: In vitro inhibition of gonadotropin-releasing hormone receptor in rhesus monkey

IC50 [1]: 350 nM | IC50 [2]: 60 nM | IC50 [3]: 7 nM | IC50 [4]: 0.5 nM
Compound: Cc1cc(-c2c(OCC[C@@H]3CCN3)c3cc(C(=O)Nc4ccncn4)c(Cl)cc3[nH]c2=O)cc(C)c1C [4-(2-Azetidin-2-yl-ethoxy)-7-chloro-2-oxo-3-(3,4,5-trimethyl-phenyl)-1,2-dihydro-quinoline-6-carboxylic acid pyrimidin-4-ylamide]
